According to the supplement of paper PMC10307832:

Assays:
Test in all cases: relative viability (nuclei count vs DMSO), 5 days (fraction); higher = more cells survive
[1] = compound: CC1(C)CNc2cc(NC(=O)c3cccnc3NCc3ccncc3)ccc21 [Motesanib] + N=C(N)NC(=N)NCCc1ccccc1 [Phenformin] (partner 250 µM)
Procedure, shortened: (§1)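 Relative viability divides the nuclei count in treated wells by that in vehicle wells. Lung cancer cell lines were seeded in 1536-well plates, dosed by pin tool the next day, and fixed and stained after 5 days in one step with final 0.05% Triton X-100, 1% formaldehyde and 1 ug/ml Hoechst. Dosing was a single drug or a fixed anchor-drug dose plus five library-drug doses (not always all listed) in √10 steps, and values are medians of duplicate plates imaged at 4×.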

[2] = compound: C[C@@]1(C(=O)Nc2ccc(F)nc2)CCCN1c1nc(Nc2cc(C3CC3)n[nH]2)c2cccn2n1 + C[C@]1(O)C[C@@H](c2nc(-c3ccc4ccc(-c5ccccc5)nc4c3)c3c(N)nccn32)C1 [Linsitinib] (partner 1 µM)
Procedure, shortened: as §1

[3] = compound: CC1(C)CNc2cc(NC(=O)c3cccnc3NCc3ccncc3)ccc21 [Motesanib] + Nc1nc2[nH]cc(CCc3ccc(C(=O)N[C@@H](CCC(=O)O)C(=O)O)cc3)c2c(=O)[nH]1 [Pemetrexed] (partner 0.2 µM)
Procedure, shortened: as §1

[4] = compound: CC1(C)CNc2cc(NC(=O)c3cccnc3NCc3ccncc3)ccc21 [Motesanib] + Nc1ncn([C@H]2C[C@H](O)[C@@H](CO)O2)c(=O)n1 [Decitabine] (partner 2 µM)
Procedure, shortened: as §1

Question: Which relative viability ([1]; first compound 0.01 µM) does the source give for UMC-11 here?
Answer: 0.29

Question: What about the relative viability ([1]; first compound 0.03162 µM) of the same cell line?
Answer: 0.33

Question: What about the relative viability ([1]; first compound 0.1 µM) of the same cell line?
Answer: 0.324

Question: What about the relative viability ([1]; first compound 0.3162 µM) of the same cell line?
Answer: 0.33

Question: And the relative viability ([1]; first compound 1 µM)?
Answer: 0.345

Question: And the relative viability ([2]; first compound 0.04 µM)?
Answer: 1.08

Question: And the relative viability ([2]; first compound 0.1265 µM)?
Answer: 0.985

Question: What about the relative viability ([2]; first compound 0.4 µM) of the same cell line?
Answer: 0.957

Question: And the relative viability ([2]; first compound 1.265 µM)?
Answer: 1.05

Question: What about the relative viability ([3]; first compound 0.01 µM) of the same cell line?
Answer: 0.834

Question: What about the relative viability ([3]; first compound 0.03162 µM) of the same cell line?
Answer: 0.696

Question: What about the relative viability ([3]; first compound 0.1 µM) of the same cell line?
Answer: 0.575

Question: And the relative viability ([3]; first compound 0.3162 µM)?
Answer: 0.608

Question: And the relative viability ([3]; first compound 1 µM)?
Answer: 0.556

Question: What about the relative viability ([4]; first compound 0.01 µM) of the same cell line?
Answer: 0.611

Question: And the relative viability ([4]; first compound 0.03162 µM)?
Answer: 0.677

Question: And the relative viability ([4]; first compound 0.1 µM)?
Answer: 0.331

Question: And the relative viability ([4]; first compound 0.3162 µM)?
Answer: 0.653

Question: What about the relative viability ([4]; first compound 1 µM) of the same cell line?
Answer: 0.724
